Patent US12357711B2, “PSMA binding dual mode radiotracer and therapeutic” (Technische Universität München, priority 2019, dated 2025)

Test system: SCID mice
Test: Preclinical dosimetry from biodistribution in mice, extrapolated to 70-kg Standard Adult (OLINDA/EXM 1.0)
Type: in vivo
Conditions: 1.0 h bladder voiding interval
Procedure: 3-5 mice were injected per timepoint with a mean 25.6±3.6 MBq of 18F-rhPSMA-7 and 28.5±4.8 MBq of 18F-rhPSMA-7.3, respectively. Mice, severe combined immunodeficiency (SCID) were used for the experiments.
Mice were sacrificed at the following timepoints: • ^18F-rhPSMA-7: 10, 20, 40, 60, 120 and 180 minutes after administration. • ^18F-rhPSMA-7.3: 10, 60, 120, 180 and 300 minutes after administration.
Urine, blood, heart, lung, spleen, pancreas, liver, stomach (emptied), small intestine (emptied), large intestine (emptied), kidneys, bladder, testis, fat, muscle (partial, femoral), femur, tail and brain. Urine was collected with a pipette in the CO2 gas chamber. In case of missing urination in the chamber the bladder was aspirated with an insulin syringe. Blood was withdrawn instantly after sacrifice with an insulin syringe from the heart. All other tissues and organs were dissected and transferred directly in plastic containers.
The counting rates of measurement samples were automatically corrected for decay. The radioactivity distribution ratios (unit: percentage of the injected dose (% ID) in the measurement samples were determined using the equation below. The sum of the counting rates from all measurement samples obtained from one mouse was designated as the counting rate for administrated radioactivity.
The radioactivity distribution ratio per unit weight of the measurement sample (unit: % ID/g) excluding urine and feces samples was determined by using the equation below. The weight of the measurement sample was determined by subtraction of the empty measurement container from the container including the sample.
For consistency of statistical calculations for each radiotracer the same number of time-points for ^18F-rhPSMA-7 and ^18F-rhPSMA-7.3 was used. Therefore, for ^18F-rhPSMA-7 the 10 min and 20 min time points were combined creating a 15 min endpoint.
The time-integral of activity for the accumulation in the significant source organs (AUCs) were generated both with numerical integration and physical decay according to J Juan et al., Journal of Pharmaceutical Sciences, 1993, 82:762-763.
In brief, to calculate a human dosimetry from the biodistribution in the mice, an extrapolation was necessary to account for the differences between the animals and humans. Normal-organ radiation doses were estimated for the 70-kg Standard Adult anatomic model using time-depending organ activity concentrations (in percent of the injected dose per gram, % ID/g) and total-body activities measured in the biodistribution studies in mice.
Tissue activity concentrations in mice were converted to tissue fractional activities in the 70-kg Standard Adult using the relative fractional organ masses in the Standard Adult and the “standard” 25-gramm mouse. Time-dependent total-body activity was fit to an exponential function and the difference between the injected activity and the total-body activity was assumed to be excreted to the urine because activity concentrations in the liver and GI tracer were low at all time points studied.
Organ residence time was calculated by numerical integration using the trapezoidal rule and the rest-of-body ^18F residence times was calculated as the difference between the total-body residence time and the sum of the organ and urine residence times. The bladder contents residence time was estimated using the dynamic voiding model in the OLINDA/EXM 1.0 dosimetry software. Finally, the Standard Adult mean organ dose equivalents (in mSv/MBq) and effective dose (also in mSv/MBq) were then calculated using OLIN DA/EXM 1.0.
Final calculation of radiation absorbed dose and dosimetry from biodistribution in mice: The tissues or organs in which a significant accumulation of radioactivity occurs (i.e., source organ) were kidney, spleen, lung, liver and heart. With respect to activity accumulation and clearance, a rapid clearance from blood and clearance to urine but relatively slow build-up in kidney was found.

## CC(C)(C)[Si](F)(c1ccc(C(=O)NC[C@@H](NC(=O)CC[C@@H](C(=O)O)N2CCN(CC(=O)[O-])CCN(CC(=O)[O-])CCN(CC(=O)[O-])CC2)C(=O)N[C@H](CCCCNC(=O)CCC(=O)NCCC[C@@H](NC(=O)CC[C@H](NC(=O)N[C@@H](CCC(=O)O)C(=O)O)C(=O)O)C(=O)O)C(=O)O)cc1)C(C)(C)C.[Ga+3] [rhPSMA7.3, [^19F][^natGa]D-Dap-S-DOTAGA-rhPSMA7]
  Adrenals ED Cont.: 5.46E−05 mSv/MBq
  Adrenals EDE Cont.: 0.00E000 mSv/MBq
  Adrenals dose Alpha: 0.00E000 mSv/MBq
  Adrenals dose Beta: 3.12E−03 mSv/MBq
  Adrenals dose Photon: 7.79E−03 mSv/MBq
  Adrenals dose Total: 1.09E−02 mSv/MBq
  Brain ED Cont.: 3.59E−05 mSv/MBq
  Brain EDE Cont.: 0.00E000 mSv/MBq
  Brain dose Alpha: 0.00E000 mSv/MBq
  Brain dose Beta: 3.12E−03 mSv/MBq
  Brain dose Photon: 4.06E−03 mSv/MBq
  Brain dose Total: 7.18E−03 mSv/MBq
  Breasts ED Cont.: 3.32E−04 mSv/MBq
  Breasts EDE Cont.: 9.97E−04 mSv/MBq
  Breasts dose Alpha: 0.00E000 mSv/MBq
  Breasts dose Beta: 3.12E−03 mSv/MBq
  Breasts dose Photon: 3.53E−03 mSv/MBq
  Breasts dose Total: 6.65E−03 mSv/MBq
  Gallbladder Wall ED Cont.: 0.00E000 mSv/MBq
  Gallbladder Wall EDE Cont.: 0.00E000 mSv/MBq
  Gallbladder Wall dose Alpha: 0.00E000 mSv/MBq
  Gallbladder Wall dose Beta: 3.12E−03 mSv/MBq
  Gallbladder Wall dose Photon: 7.11E−03 mSv/MBq
  Gallbladder Wall dose Total: 1.02E−02 mSv/MBq
  Heart Wall ED Cont.: 0.00E000 mSv/MBq
  Heart Wall EDE Cont.: 0.00E000 mSv/MBq
  Heart Wall dose Alpha: 0.00E000 mSv/MBq
  Heart Wall dose Beta: 1.32E−03 mSv/MBq
  Heart Wall dose Photon: 5.36E−03 mSv/MBq
  Heart Wall dose Total: 6.68E−03 mSv/MBq
  Kidneys ED Cont.: 3.58E−04 mSv/MBq
  Kidneys EDE Cont.: 4.29E−03 mSv/MBq
  Kidneys dose Alpha: 0.00E000 mSv/MBq
  Kidneys dose Beta: 5.11E−02 mSv/MBq
  Kidneys dose Photon: 2.04E−02 mSv/MBq
  Kidneys dose Total: 7.16E−02 mSv/MBq
  LLI Wall ED Cont.: 1.39E−03 mSv/MBq
  LLI Wall EDE Cont.: 6.94E−04 mSv/MBq
  LLI Wall dose Alpha: 0.00E000 mSv/MBq
  LLI Wall dose Beta: 3.12E−03 mSv/MBq
  LLI Wall dose Photon: 8.45E−03 mSv/MBq
  LLI Wall dose Total: 1.16E−02 mSv/MBq
  Liver ED Cont.: 2.92E−04 mSv/MBq
  Liver EDE Cont.: 0.00E000 mSv/MBq
  Liver dose Alpha: 0.00E000 mSv/MBq
  Liver dose Beta: 9.70E−04 mSv/MBq
  Liver dose Photon: 4.87E−03 mSv/MBq
  Liver dose Total: 5.84E−03 mSv/MBq
  Lungs ED Cont.: 7.90E−04 mSv/MBq
  Lungs EDE Cont.: 7.90E−04 mSv/MBq
  Lungs dose Alpha: 0.00E000 mSv/MBq
  Lungs dose Beta: 1.95E−03 mSv/MBq
  Lungs dose Photon: 4.63E−03 mSv/MBq
  Lungs dose Total: 6.58E−03 mSv/MBq
  Muscle ED Cont.: 4.30E−05 mSv/MBq
  Muscle EDE Cont.: 0.00E000 mSv/MBq
  Muscle dose Alpha: 0.00E000 mSv/MBq
  Muscle dose Beta: 3.12E−03 mSv/MBq
  Muscle dose Photon: 5.47E−03 mSv/MBq
  Muscle dose Total: 8.59E−03 mSv/MBq
  Osteogenic Cells ED Cont.: 1.28E−04 mSv/MBq
  Osteogenic Cells EDE Cont.: 3.84E−04 mSv/MBq
  Osteogenic Cells dose Alpha: 0.00E000 mSv/MBq
  Osteogenic Cells dose Beta: 6.70E−03 mSv/MBq
  Osteogenic Cells dose Photon: 6.11E−03 mSv/MBq
  Osteogenic Cells dose Total: 1.28E−02 mSv/MBq
  Ovaries ED Cont.: 2.35E−03 mSv/MBq
  Ovaries EDE Cont.: 2.93E−03 mSv/MBq
  Ovaries dose Alpha: 0.00E000 mSv/MBq
  Ovaries dose Beta: 3.12E−03 mSv/MBq
  Ovaries dose Photon: 8.61E−03 mSv/MBq
  Ovaries dose Total: 1.17E−02 mSv/MBq
  Pancreas ED Cont.: 5.62E−05 mSv/MBq
  Pancreas EDE Cont.: 0.00E000 mSv/MBq
  Pancreas dose Alpha: 0.00E000 mSv/MBq
  Pancreas dose Beta: 3.12E−03 mSv/MBq
  Pancreas dose Photon: 8.12E−03 mSv/MBq
  Pancreas dose Total: 1.12E−02 mSv/MBq
  Red Marrow ED Cont.: 9.97E−04 mSv/MBq
  Red Marrow EDE Cont.: 9.97E−04 mSv/MBq
  Red Marrow dose Alpha: 0.00E000 mSv/MBq
  Red Marrow dose Beta: 2.22E−03 mSv/MBq
  Red Marrow dose Photon: 6.09E−03 mSv/MBq
  Red Marrow dose Total: 8.31E−03 mSv/MBq
  Skin ED Cont.: 6.57E−05 mSv/MBq
  Skin EDE Cont.: 0.00E000 mSv/MBq
  Skin dose Alpha: 0.00E000 mSv/MBq
  Skin dose Beta: 3.12E−03 mSv/MBq
  Skin dose Photon: 3.45E−03 mSv/MBq
  Skin dose Total: 6.57E−03 mSv/MBq
  Small Intestine ED Cont.: 5.45E−05 mSv/MBq
  Small Intestine EDE Cont.: 0.00E000 mSv/MBq
  Small Intestine dose Alpha: 0.00E000 mSv/MBq
  Small Intestine dose Beta: 3.12E−03 mSv/MBq
  Small Intestine dose Photon: 7.78E−03 mSv/MBq
  Small Intestine dose Total: 1.09E−02 mSv/MBq
  Spleen ED Cont.: 1.33E−04 mSv/MBq
  Spleen EDE Cont.: 1.59E−03 mSv/MBq
  Spleen dose Alpha: 0.00E000 mSv/MBq
  Spleen dose Beta: 1.52E−02 mSv/MBq
  Spleen dose Photon: 1.14E−02 mSv/MBq
  Spleen dose Total: 2.66E−02 mSv/MBq
  Stomach Wall ED Cont.: 1.19E−03 mSv/MBq
  Stomach Wall EDE Cont.: 0.00E000 mSv/MBq
  Stomach Wall dose Alpha: 0.00E000 mSv/MBq
  Stomach Wall dose Beta: 3.12E−03 mSv/MBq
  Stomach Wall dose Photon: 6.80E−03 mSv/MBq
  Stomach Wall dose Total: 9.92E−03 mSv/MBq
  Testes ED Cont.: 0.00E000 mSv/MBq
  Testes EDE Cont.: 0.00E000 mSv/MBq
  Testes dose Alpha: 0.00E000 mSv/MBq
  Testes dose Beta: 3.12E−03 mSv/MBq
  Testes dose Photon: 6.08E−03 mSv/MBq
  Testes dose Total: 9.20E−03 mSv/MBq
  Thymus ED Cont.: 4.09E−05 mSv/MBq
  Thymus EDE Cont.: 0.00E000 mSv/MBq
  Thymus dose Alpha: 0.00E000 mSv/MBq
  Thymus dose Beta: 3.12E−03 mSv/MBq
  Thymus dose Photon: 5.06E−03 mSv/MBq
  Thymus dose Total: 8.18E−03 mSv/MBq
  Thyroid ED Cont.: 4.13E−04 mSv/MBq
  Thyroid EDE Cont.: 2.48E−04 mSv/MBq
  Thyroid dose Alpha: 0.00E000 mSv/MBq
  Thyroid dose Beta: 3.12E−03 mSv/MBq
  Thyroid dose Photon: 5.15E−03 mSv/MBq
  Thyroid dose Total: 8.27E−03 mSv/MBq
  Total Body ED Cont.: 0.00E000 mSv/MBq
  Total Body EDE Cont.: 0.00E000 mSv/MBq
  Total Body dose Alpha: 0.00E000 mSv/MBq
  Total Body dose Beta: 3.45E−03 mSv/MBq
  Total Body dose Photon: 5.42E−03 mSv/MBq
  Total Body dose Total: 8.87E−03 mSv/MBq
  ULI Wall ED Cont.: 5.23E−05 mSv/MBq
  ULI Wall EDE Cont.: 0.00E000 mSv/MBq
  ULI Wall dose Alpha: 0.00E000 mSv/MBq
  ULI Wall dose Beta: 3.12E−03 mSv/MBq
  ULI Wall dose Photon: 7.33E−03 mSv/MBq
  ULI Wall dose Total: 1.05E−02 mSv/MBq
  Urinary Bladder Wall ED Cont.: 3.92E−03 mSv/MBq
  Urinary Bladder Wall EDE Cont.: 4.70E−03 mSv/MBq
  Urinary Bladder Wall dose Alpha: 0.00E000 mSv/MBq
  Urinary Bladder Wall dose Beta: 5.18E−02 mSv/MBq
  Urinary Bladder Wall dose Photon: 2.66E−02 mSv/MBq
  Urinary Bladder Wall dose Total: 7.84E−02 mSv/MBq
  Uterus ED Cont.: 7.13E−05 mSv/MBq
  Uterus EDE Cont.: 8.55E−04 mSv/MBq
  Uterus dose Alpha: 0.00E000 mSv/MBq
  Uterus dose Beta: 3.12E−03 mSv/MBq
  Uterus dose Photon: 1.11E−02 mSv/MBq
  Uterus dose Total: 1.43E−02 mSv/MBq
